Test results as given in US20250367170A1, “TOPICAL ANGIOTENSIN II RECEPTOR BLOCKERS (ARBS) FOR TREATING EYE CONDITIONS” (The Cleveland Clinic Foundation, priority 2022, published 2025).

Legend:
Assay type in all cases: in vivo, New Zealand White rabbits
[1] = test system: α-smooth muscle actin (SMA) marker for myofibroblasts; experiment: IHC for SMA, area of SMA-positive posterior fibrotic stroma (QuPath) after Descemetorhexis
Description: At one month after surgery and treatment, an intravenous injection of 100 mg/kg Beuthanasia (Shering-Plough, Kenilworth, NJ) was given for euthanasia with the animals under general anaesthesia. Sharp Westcott scissors (Fairfield, CT, USA) and 0.12 forceps (Storz, St. Louis, MO) were used to remove the comeo-scleral rims of the sham unwounded and DMR eyes without touching the cornea. Each cornea was set in the center of a 24×24×5 mm mold (Fisher Scientific, Pittsburgh, PA, USA) and the mold was filled in liquid OCT compound (Sakura Finetek, Torrance, CA, USA). The molds and cornea-scleral rims were quick frozen on dry ice and stored at −80° C. until sections were cut.
Each OCT block was bisected in the exact center of the cornea, and 8 μm thick transverse sections were cut from the central cornea within the previous DMR injury or unwounded sham surgery corneas with a cryostat (HM 505M; Micron GmbH, Walldorf, Germany) and three sections per slide were placed on 25 mm×75 mm×1 mm Superfrost Plus microscope slides (Fisher Scientific, Pittsburgh, PA, USA). Slides were maintained at −20° C. until immunohistochemistry.
Duplex immunohistochemistry (IHC) was performed after masking of slides by a researcher not involved in the analysis using previously described methods (de Oliveira et al., 2021) using primary antibodies (Table 2) confirmed by western blotting and IHC to recognize rabbit antigens or isotypic control antibodies (ThermoFisher Scientific, Waltham, MA), and secondary fluorescent tagged antibodies (Table 3).
The area of the SMA-positive posterior fibrotic stroma was quantitated with the original groups masked to the analyzer by standardized photography with a lOx objective on a Leica DM6B upright microscope equipped with an automated stage and Leica 7000 T camera using the LAS X software (Leica Microsystems, GmbH, Wetzlar, Germany). The area of the SMA-positive posterior stromal fibrosis was measured by manually outlining the area on the cornea sections with calibrated QuPath v0.2.3 software using previously described methods (Bankhead et al., 2017). Statistical analysis for the area of SMA-positive fibrosis was performed using the Kruskal-Wallis test followed by post-hoc Dunn's-Bonferroni test and p<0.05 was considered statistically significant.

[2] = test system: α-SMA-positive myofibroblasts; experiment: IHC for α-SMA-positive myofibroblasts, area and intensity (ImageJ) after alkali burn; conditions: one month
Description: One month after exposure and topical treatment, rabbits were euthanized after ketamine-xylazine general anesthesia with 100 mg/kg Beuthanasia (Shering-Plough, Kenilworth, NJ) by intravenous injection and bilateral pneumothorax. The corneo-scleral rims of eyes were removed with sharp Westcott scissors (Fairfield, CT, USA) and 0.12 forceps (Storz, St. Louis, MO). The cornea was centered in a 24×24×5 mm mold (Fisher Scientific, Pittsburgh, PA, USA) that was filled with OCT compound (Sakura Finetek, Torrance, CA, USA) and quick frozen on dry ice. Blocks were stored at −80° C. until sectioning. […]
The area of the α-SMA-positive stroma in mm^2 and the total α-SMA opacity in pixels were quantitated using standardized images obtained with a 10× objective on a Leica DM6B upright microscope equipped with an automated stage and Leica 7000 T camera using the LAS X software (Leica Microsystems, GmbH, Wetzlar, Germany). The means of three central corneal sections were analyzed from each cornea to provide the area of α-SMA-positive stroma and the total α-SMA opacity. […] In these same sections for each cornea, the total α-SMA-positive intensity in pixels was also determined with ImageJ, similarly by using the summation if separate α-SMA-positive areas were present.

[3] = test system: central corneal neovascularization (CNV); experiment: Corneal angiography for central corneal neovascularization after alkali burn; conditions: topical six times per day, one month, all four vehicle corneas positive
Description: Alkali injuries were produced in one eye of rabbits with previously published methods^10 using 1N sodium hydroxide (Sigma, St. Louis, MO) in balanced salt solution (BSS, 0.64% sodium chloride, 0.075% potassium chloride, 0.048% calcium chloride dihydrate, 0.03% magnesium chloride hexahydrate, 0.39% sodium acetate trihydrate, 0.17% sodium citrate dihydrate, pH 7.5, Alcon, Ft. Worth, TX) and a 5 mm diameter circular Whatman No. 1 filter paper (Cat #1001-6508, Fisher Scientific) wetted with 100 μl of 1N NaOH solution. Following the alkali burn injury, the cornea was irrigated profusely with BSS. Each injured cornea also received one drop of ciprofloxacin (Alcon, Ft. Worth, TX, USA) ten minutes after surgery and four times a day for one week and at least 15 minutes apart from the study medications.
Worth TX), at least 5 minutes apart, or 4) 50 μl of BSS.
All corneas had fluorescent angiography at the peak of dye passage in the cornea immediately after injection of 1.5 ml of 10% sodium fluorescein (McKesson, Irvine, TX) in the central ear vein with the slit lamp system and digital camera system using a “barrier filter” that only transmitted 520-530 nm, the peak of fluorescein emission, with broad illumination of the cornea, as previously described.^11

CCCCc1nc(Cl)c(CO)n1Cc1ccc(-c2ccccc2-c2nn[nH]n2)cc1 [losartan]
posterior fibrosis compared with topical and oral vehicle ([1]; Descemetorhexis, oral 5 mg/kg three times per day, one month): similar | mean SMA-positive posterior fibrotic area vs vehicles or topical and oral losartan ([1]; Descemetorhexis, oral losartan alone, one month): not statistically significantly different | mean SMA-positive posterior fibrotic area compared to the other Descemetorhexis groups ([1]; Descemetorhexis, topical 0.1 mg/ml six times a day, one month): significantly lower | SMA-positive fibrotic zone in the posterior cornea ([1]; Descemetorhexis, topical 0.1 mg/ml six times per day, one month): marked decrease | SMA-positive fibrosis in the posterior cornea ([1]; Descemetorhexis, topical six times per day and oral three times per day, one month): decrease | SMA-positive posterior corneal fibrosis in uninjured corneas ([1]; oral three times a day): did not develop | SMA-positive posterior corneal fibrosis in uninjured corneas ([1]; topical six times a day): did not develop | total α-SMA area vs vehicle control group [2]: trend towards the losartan group being significantly different | corneas (of four) that developed central corneal neovascularization [3]: two
